This is an account of results in paper PMC11769294, “(E)-1-(3-(3-Hydroxy-4-Methoxyphenyl)-1-(3,4,5-Trimethoxyphenyl)allyl)-1H-1,2,4-Triazole and Related Compounds: Their Synthesis and Biological Evaluation as Novel Antimitotic Agents Targeting Breast Cancer” (Pharmaceuticals, 2025).

The target of experiment [1] is CYP19 (aromatase) (Homo sapiens, UniProt P11511). The experiment is described as follows: Cytochrome P450 assay (DBF fluorescence). The settings on record: read-out: inhibition of CYP19.
Sequence of CYP19 (aromatase) (P11511 whole entry): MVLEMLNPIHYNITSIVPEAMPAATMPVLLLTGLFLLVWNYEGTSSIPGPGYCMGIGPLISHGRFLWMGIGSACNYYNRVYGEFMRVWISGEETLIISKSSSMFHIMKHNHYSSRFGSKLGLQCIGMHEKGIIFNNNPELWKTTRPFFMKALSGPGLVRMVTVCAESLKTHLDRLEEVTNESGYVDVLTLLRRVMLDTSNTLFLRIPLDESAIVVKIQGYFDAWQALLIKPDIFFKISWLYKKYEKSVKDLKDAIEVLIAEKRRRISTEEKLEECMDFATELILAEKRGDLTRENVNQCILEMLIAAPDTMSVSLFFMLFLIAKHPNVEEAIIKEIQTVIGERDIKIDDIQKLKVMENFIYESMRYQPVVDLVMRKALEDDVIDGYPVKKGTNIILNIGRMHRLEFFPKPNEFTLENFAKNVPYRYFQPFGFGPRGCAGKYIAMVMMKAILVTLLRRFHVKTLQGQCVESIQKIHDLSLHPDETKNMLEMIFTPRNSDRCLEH
The subject of experiment [2] is MCF-7 breast cancer cells. The experiment is described as follows: Annexin V/PI apoptotic assay. The class given is cell-based, human. On the procedure:
(§1) Apoptotic cell death was monitored by flow cytometry using Annexin V and propidium iodide (PI) to determine the Annexin V and PI negative cells (Q4, healthy cells), Annexin V positive and PI negative cells (Q3, early apoptosis), Annexin V and PI positive cells (Q2, late apoptosis), and Annexin V negative and PI-positive cells (Q1, necrosis) cells. MCF-7 and MDA-MB-231 cells for this experiment were seeded in 6-well plates at a density of 1 × 10^5 cells/mL (3 mL). Following the protocol previously described, the cells were treated at 37 °C with either vehicle (0.1% (v/v) EtOH), phenstatin 19c, (0.1 μM and 0.5 μM), or 22b (0.1 μM, 0.5 μM and 1 μM) at the 48 h time point. Cells were harvested by centrifugation at 400× g using a temperature-controlled Sorvall centrifuge and then prepared for flow cytometric analysis. Cells were washed in Annexin V Binding Buffer 1X (binding buffer: 0.1 M 4-(2-hydroxyethyl)-1-piperazineethanesulfonic acid (HEPES), pH 7.4; 1.4 M NaCl; 25 mM CaCl2 diluted in dH2O, 0.5 mL), and incubated in the dark for 30 min on ice in Annexin V-containing binding buffer (1:100), 50 μL protected from light. Cells were then washed once in binding buffer and then re-suspended in a PI-containing binding buffer (1:1,000) (0.5 μg/mL, 500 μL) and immediately analyzed within 1 h to determine the populations produced. BD Accuri flow cytometer (BD Biosciences, 2350 Qume Dr, San Jose, CA, USA) and GraphPad Prism software were used for the analysis of the data (GraphPad Software, Inc., 2365 Northside Dr., Suite 560, San Diego, CA, USA).
(§2) Figure 11 Compound 22b induced apoptosis in (A) MCF-7 breast cancer cells and (B) MDA-MB-231 breast cancer cells. MCF-7 breast cancer cells (A) and MDA-MB-23 breast cancer cells (B) were treated with 22b (0.1, 0.5, and 1.0 μM) or phenstatin (19c) (0.1 μM and 0.5 μM) or control vehicle (0.1% ethanol (v/v)). The data shown for the control vehicle and phenstatin are as we previously reported. The apoptotic cell content was determined by staining with Annexin V-FITC and PI. […]

Experiment [3] concerns MDA-MB-231 breast cancer cells. The experiment is described as follows: Annexin V/PI apoptotic assay. Type of experiment: cell-based, human. Here is the method: as §1, §2

What is called inhibition is the drop in the measured response relative to a control, in per cent. What is called viability is a read-out of living cells in per cent, often relative to untreated cells. Low readings indicate a greater loss of cells, high ones better survival. As to `COc1ccc(/C=C/C(c2cc(OC)c(OC)c(OC)c2)n2cncn2)cc1O` (stereo not drawn) [Compound 22b, (E)-5-(3-(1H-1,2,4-Triazol-1-yl)-3-(3,4,5-trimethoxyphenyl)prop-1-en-1-yl)-2-methoxyphenol], in experiment [1], the inhibition at 50 µM is 93%. Besides, the “cells undergoing apoptosis (early + late)” value in experiment [2] (0.5 μM) came out at 21%; in experiment [2] (1 μM), 33%. Further, the viability at 0.1 µM was 82.8% in experiment [2] (Homo sapiens, MCF7, 0.1 μM, Figure 11A) and 92.8% in experiment [3] (Homo sapiens, 0.1 μM, Figure 11B). In addition, the viability at 0.5 µM turned out to be 78.1% in experiment [2] (Homo sapiens, MCF7, 0.5 μM, Figure 11A) and 92.1% in experiment [3] (Homo sapiens, 0.5 μM, Figure 11B). For the same compound, the viability at 1 µM in experiment [2] (Homo sapiens, MCF7, 1 μM, Figure 11A) was 60.6%; in experiment [3] (Homo sapiens, 1 μM, Figure 11B), 77.6%. The values for the cells in apoptosis in experiment [3] (0.1 μM), in experiment [3] (0.5 μM) and in experiment [3] (1.0 μM) were 5.9%, 6.5% and 20.8%, respectively.
